Measured values reported in patent US20260166017A1, “SARM1 INHIBITORS FOR USE IN THERAPY AND COSMETICS” (priority 2022, published 2026).
“Also recorded” adds a separate entry of the source.

Experiments:
[1] = system: human primary myoblasts; experiment: Cell death assay in human primary myoblasts (propidium iodide); assay type: cell-based; conditions: high dose vacor (100 μM), 24 h vs DMSO
Method: Human primary myoblasts and human dermal skin fibroblasts were cultured following previously described protocols (Kisiel and Klar 2019; Rozwadowska et al. 2022). Drug treatment was started when cells reached the desired confluency. To visualise cell death, 1 μg/ml propidium iodide (PI) (Thermo Fisher Scientific) was added to the media at the same time of drug addition (Loreto et al. 2021). Phase contrast and fluorescence microscopy images were acquired on a DMi8 upright fluorescence microscope (Leica microsystems) coupled to a monochrome digital camera (Hamamatsu C4742-95). The objective used was HCXPL 20 X/0.40 CORR.

[2] = LeWitt, 1980; Loreto et al., 2021; cited from earlier work
[3] = system: freshly plated P2 mouse Schwann cells; experiment: Cell death in freshly plated P2 mouse Schwann cells (propidium iodide, DAPI, SOX10); assay type: cell-based; conditions: 100 μM vacor for 72 hours vs DMSO
Method: (§1) Freshly plated mouse Schwann cells were obtained from P2 sciatic and brachial nerves. Nerves were digested with trypsin and collagenase, centrifuged and plated on laminin/Poly-L-lysine coated glass coverslips in defined medium as previously described (Arthur-Farraj et al., 2011).
Sciatic and optic nerves were dissected from Wt and Sarm1 KO mice and directly embedded in O.C.T. compound, without fixing, and stored at −80° C. until ready for cryosectioning. Cryosections at 5 μm thick were collected onto SuperFrost plus slides. These slides were post-fixed in 4% paraformaldehyde (PFA) at room temperature for 10 mins followed by three washes of 5 mins each with 1×PBS. The slides were then immersed in 100% methanol at −20° C. for 10 mins, followed by three washes of 5 mins each with 1×PBS. The slides were then blocked in 5% horse serum (HS)/0.2% Triton x-100/PBS for 30 mins at room temperature. Primary antibodies were diluted in blocking solution and slides were incubated overnight at 4° C. The following day, the slides were washed once for 5 mins with 1×PBS, twice for 5 mins with 0.1% tween/PBS and finally once again for 5 mins with 1×PBS before adding secondary antibodies. The corresponding secondary antibodies were diluted at 1:500 along with DAPI at 1:2000 for 2 hrs at room temperature and kept in the dark. […]

[4] = system: neuronal cultures; conditions: Loreto et al., 2021, Wu et al.; cited from earlier work
[5] = target: T1, SARM1 (Homo sapiens, UniProt Q6SZW1); conditions: Loreto et al., 2021; Angeletti et al., 2022; Wu et al.; cited from earlier work
T1 sequence (Q6SZW1 28-724): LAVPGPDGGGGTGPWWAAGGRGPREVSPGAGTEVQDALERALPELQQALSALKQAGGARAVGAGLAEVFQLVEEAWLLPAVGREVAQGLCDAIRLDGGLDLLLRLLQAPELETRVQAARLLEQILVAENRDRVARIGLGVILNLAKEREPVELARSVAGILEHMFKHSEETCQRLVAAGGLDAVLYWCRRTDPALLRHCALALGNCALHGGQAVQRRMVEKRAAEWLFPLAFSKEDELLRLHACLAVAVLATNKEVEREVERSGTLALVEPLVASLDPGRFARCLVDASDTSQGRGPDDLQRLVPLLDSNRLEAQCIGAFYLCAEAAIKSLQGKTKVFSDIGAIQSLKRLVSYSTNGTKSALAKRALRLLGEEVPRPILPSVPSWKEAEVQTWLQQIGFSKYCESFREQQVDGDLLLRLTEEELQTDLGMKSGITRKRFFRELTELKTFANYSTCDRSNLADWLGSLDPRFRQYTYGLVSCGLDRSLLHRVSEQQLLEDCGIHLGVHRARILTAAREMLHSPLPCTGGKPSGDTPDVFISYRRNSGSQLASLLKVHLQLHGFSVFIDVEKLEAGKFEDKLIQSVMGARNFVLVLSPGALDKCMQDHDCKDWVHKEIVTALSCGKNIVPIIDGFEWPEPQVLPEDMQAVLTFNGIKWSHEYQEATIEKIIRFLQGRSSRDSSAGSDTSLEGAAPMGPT

[6] = system: Schwann cells; experiment: Intracellular NAD+ in Schwann cells (NAD-glo assay); assay type: cell-based, mouse; conditions: 100 μM vacor, 72 hours, compared to DMSO control
Method: as §1
[…] Protein was extracted using Pierce™ IP Lysis Buffer supplemented with cOmplete™ Mini EDTA-free Protease Inhibitor Cocktail, and a BCA assay carried out to determine protein concentration. All samples were diluted to 0.5 μg/μL. The NAD-glo assay was performed according to manufacturer's instruction of the NAD^+/NADH-Glo™ assay by Promega (G9071). In short, 25 μL of sample were incubated with 12.5 μL 0.4M HCl at 60° C. for 15 min, before 12.5 μL 0.5M Tris base were added. 10 μL NAD^+ standards or sample were then mixed with 10 μL NAD-glo master mix (1 ml luciferin detection reagent, 5 μl reductase, 5 μl reductase substrate, 5 μl NAD^+ cycling enzyme, 25 μl NAD^+ cycling substrate) and incubated at RT for 40 min. Luminescence was read using a GloMax® Explorer microplate reader and NAD^+ concentrations determined relative to a NAD^+ standard curve.

Question: Which results are given for `O=C(NCc1cccnc1)Nc1ccc([N+](=O)[O-])cc1` [vacor, Vacor]?
Answer: cell death by propidium iodide (P.I.) staining [1]: completely insensitive; also recorded: no cell death occurs; neurotoxic effects in humans [2]: severe neurotoxic effects; cell death judged by propidium iodide (P.I) and DAPI nuclear staining and SOX10 immunocytochemistry [3]: completely insensitive; also recorded: no cell death; effect of high dose on neuronal cultures [4]: axonal degeneration and cell death within hours; SARM1 activity on interaction with active site (TIR domain) for base exchange reaction [5]: modest increase in SARM1 activity; Intracellular NAD+ levels [6]: no reduction; also recorded: do not change
